# Experimental data as given in patent US20230123334A1, “AMINO LIPID COMPOUND, PREPARATION METHOD THEREFOR, AND APPLICATION THEREOF” (SHENZHEN SHENXIN BIOTECHNOLOGY CO., LTD., priority 2020, published 2023).
# Tested on: HEK293 cells
# Assay: Preliminary screening as mRNA vectors, EGFP mRNA transfection of HEK293 cells
# Assay type: cell-based
# Conditions: EGFP mRNA 50 ng per well, 96-well plates; percentage of GFP fluorescent cells relative to total number of cells (Hoechst)
# In short: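 Screening format: EGFP mRNA transfection (50 ng/well) into HEK293 in 10% FBS-supplemented DMEM. Percent green fluorescent cells, normalised to Hoechst nuclear count, gave the value; Lipofectamine2000 was the reference transfectant.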
row,SMILES,Absolute mRNA transfection efficiency in HEK293 cells
1,CCCCCCCCCSc1nc(NCCCCCC)nc(NCCN2CCCCC2)n1 [Compound D4S9N6],0.3%
2,CCCCCCCCCSc1nc(NCCCCCCC)nc(NCCN2CCCCC2)n1 [Compound D4S9N7],3.0%
3,CCCCCCCCCSc1nc(NCCCCCCCC)nc(NCCN2CCCCC2)n1 [Compound D4S9N8],6.6%
4,CCCCCCCCCNc1nc(NCCN2CCCCC2)nc(SCCCCCCCCC)n1 [Compound D4S9N9],11.3%
5,CCCCCCCCCCCNc1nc(NCCN2CCCCC2)nc(SCCCCCCCCC)n1 [Compound D4S9N11],17.4%
6,CCCCCCCCCCCCNc1nc(NCCN2CCCCC2)nc(SCCCCCCCCC)n1 [Compound D4S9N12],9.5%
7,CCCCCCCCCCCCCNc1nc(NCCN2CCCCC2)nc(SCCCCCCCCC)n1 [Compound D4S9N13],10.8%
8,CCCCCCCCCCCCCCCNc1nc(NCCN2CCCCC2)nc(SCCCCCCCCC)n1 [Compound D4S9N15],4.9%
9,CCCCCCCCCCCCCCCCNc1nc(NCCN2CCCCC2)nc(SCCCCCCCCC)n1 [Compound D4S9N16],2.2%
10,CCCCCCCCCCCCCCCCCCNc1nc(NCCN2CCCCC2)nc(SCCCCCCCCC)n1 [Compound D4S9N18],8.3%
11,CCCCCCCCCCSc1nc(NCCCCCC)nc(NCCN2CCCCC2)n1 [Compound D4S10N6],0.1%
12,CCCCCCCCCCSc1nc(NCCCCCCC)nc(NCCN2CCCCC2)n1 [Compound D4S10N7],0.1%
13,CCCCCCCCCCSc1nc(NCCCCCCCC)nc(NCCN2CCCCC2)n1 [Compound D4S10N8],0.1%
14,CCCCCCCCCCSc1nc(NCCCCCCCCC)nc(NCCN2CCCCC2)n1 [Compound D4S10N9],0.2%
15,CCCCCCCCCCCNc1nc(NCCN2CCCCC2)nc(SCCCCCCCCCC)n1 [Compound D4S10N11],0.8%
16,CCCCCCCCCCCCNc1nc(NCCN2CCCCC2)nc(SCCCCCCCCCC)n1 [Compound D4S10N12],1.0%
17,CCCCCCCCCCCCCNc1nc(NCCN2CCCCC2)nc(SCCCCCCCCCC)n1 [Compound D4S10N13],0.3%
18,CCCCCCCCCCCCCCCNc1nc(NCCN2CCCCC2)nc(SCCCCCCCCCC)n1 [Compound D4S10N15],1.5%
19,CCCCCCCCCCCCCCCCNc1nc(NCCN2CCCCC2)nc(SCCCCCCCCCC)n1 [Compound D4S10N16],14.7%
20,CCCCCCCCCCCCCCCCCCNc1nc(NCCN2CCCCC2)nc(SCCCCCCCCCC)n1 [Compound D4S10N18],37.7%
21,CCCCCCCCCCCSc1nc(NCCCCCC)nc(NCCN2CCCCC2)n1 [Compound D4S11N6],2.7%
22,CCCCCCCCCCCSc1nc(NCCCCCCC)nc(NCCN2CCCCC2)n1 [Compound D4S11N7],2.3%
23,CCCCCCCCCCCSc1nc(NCCCCCCCC)nc(NCCN2CCCCC2)n1 [Compound D4S11N8],4.3%
24,CCCCCCCCCCCSc1nc(NCCCCCCCCC)nc(NCCN2CCCCC2)n1 [Compound D4S11N9],4.2%
25,CCCCCCCCCCCNc1nc(NCCN2CCCCC2)nc(SCCCCCCCCCCC)n1 [Compound D4S11N11],2.0%

row,SMILES,Absolute mRNA transfection efficiency in HEK293 cells
1,CCCCCCCCCCCCNc1nc(NCCN2CCCCC2)nc(SCCCCCCCCCCC)n1 [Compound D4S11N12],8.9%
2,CCCCCCCCCCCCCNc1nc(NCCN2CCCCC2)nc(SCCCCCCCCCCC)n1 [Compound D4S11N13],15.4%
3,CCCCCCCCCCCCCCCNc1nc(NCCN2CCCCC2)nc(SCCCCCCCCCCC)n1 [Compound D4S11N15],17.0%
4,CCCCCCCCCCCCCCCCNc1nc(NCCN2CCCCC2)nc(SCCCCCCCCCCC)n1 [Compound D4S11N16],12.3%
5,CCCCCCCCCCCCCCCCCCNc1nc(NCCN2CCCCC2)nc(SCCCCCCCCCCC)n1 [Compound D4S11N18],8.8%
6,CCCCCCCCCCCCSc1nc(NCCCCCC)nc(NCCN2CCCCC2)n1 [Compound D4S12N6],0.9%
7,CCCCCCCCCCCCSc1nc(NCCCCCCC)nc(NCCN2CCCCC2)n1 [Compound D4S12N7],0.5%
8,CCCCCCCCCCCCSc1nc(NCCCCCCCC)nc(NCCN2CCCCC2)n1 [Compound D4S12N8],1.6%
9,CCCCCCCCCCCCSc1nc(NCCCCCCCCC)nc(NCCN2CCCCC2)n1 [Compound D4S12N9],0.7%
10,CCCCCCCCCCCCSc1nc(NCCCCCCCCCCC)nc(NCCN2CCCCC2)n1 [Compound D4S12N11],3.7%
11,CCCCCCCCCCCCNc1nc(NCCN2CCCCC2)nc(SCCCCCCCCCCCC)n1 [Compound D4S12N12],2.1%
12,CCCCCCCCCCCCCNc1nc(NCCN2CCCCC2)nc(SCCCCCCCCCCCC)n1 [Compound D4S12N13],1.3%
13,CCCCCCCCCCCCCCCNc1nc(NCCN2CCCCC2)nc(SCCCCCCCCCCCC)n1 [Compound D4S12N15],2.0%
14,CCCCCCCCCCCCCCCCNc1nc(NCCN2CCCCC2)nc(SCCCCCCCCCCCC)n1 [Compound D4S12N16],1.3%
15,CCCCCCCCCCCCCCCCCCNc1nc(NCCN2CCCCC2)nc(SCCCCCCCCCCCC)n1 [Compound D4S12N18],4.6%
16,CCCCCCCCCCCCCCSc1nc(NCCCCCC)nc(NCCN2CCCCC2)n1 [Compound D4S14N6],3.0%
17,CCCCCCCCCCCCCCSc1nc(NCCCCCCC)nc(NCCN2CCCCC2)n1 [Compound D4S14N7],4.5%
18,CCCCCCCCCCCCCCSc1nc(NCCCCCCCC)nc(NCCN2CCCCC2)n1 [Compound D4S14N8],3.2%
19,CCCCCCCCCCCCCCSc1nc(NCCCCCCCCC)nc(NCCN2CCCCC2)n1 [Compound D4S14N9],4.0%
20,CCCCCCCCCCCCCCSc1nc(NCCCCCCCCCCC)nc(NCCN2CCCCC2)n1 [Compound D4S14N11],3.8%
21,CCCCCCCCCCCCCCSc1nc(NCCCCCCCCCCCC)nc(NCCN2CCCCC2)n1 [Compound D4S14N12],12.6%
22,CCCCCCCCCCCCCCSc1nc(NCCCCCCCCCCCCC)nc(NCCN2CCCCC2)n1 [Compound D4S14N13],14.5%
23,CCCCCCCCCCCCCCCNc1nc(NCCN2CCCCC2)nc(SCCCCCCCCCCCCCC)n1 [Compound D4S14N15],1.7%
24,CCCCCCCCCCCCCCCCNc1nc(NCCN2CCCCC2)nc(SCCCCCCCCCCCCCC)n1 [Compound D4S14N16],1.4%
